For this assay, the system named is CEM cells HIV-1 protection, formazan growth assay. The experiment in a line: NCI AIDS Antiviral Assay. The note with it: for IC50: measured here: growth of uninfected CEM cells. As to the method:
The ability of compounds to protect human CEM cells from HIV-1 infection is measured as a screen for new compounds capable of inhibiting the HIV virus. Five concentrations of drug were tested on uninfected and infected cells and cell growth was measured using a soluble formazan assay. […] Compounds that provided at least 50% protection were retested. Compounds that provided at least 50% protection on retest were listed as moderately active. Compounds that reproducibly provided 100% protection were listed as confirmed active. […] Note that the inability to provide protection could be due to toxicity.

For 68 molecules, EC50, IC50 and outcome results are on record in PubChem BioAssay AID179 (DTP/NCI, 2004).

Each structure is given as a SMILES string. Active and inactive are the calls of the source.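 How the source made its calls: active means compounds giving half or more protection of infected cells from virus-caused growth loss, again on retest; inactive means the rest.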 Where a SMILES comes first, the peptide text is derived from it. [ ]: non-standard residue; d: D form. The star is where a group is joined. hSer = N[CH](CCO)C(=O)O; Boc = CC(C)(C)OC(=O)*

For `N#CC(C(=N/O)/C(=N\O)C(C#N)c1ccccc1)c1ccccc1` (stereo unspecified), the EC50 – broadly, the concentration giving half of the maximal effect – was above 794 µM and the IC50 (as a rule, the concentration at which inhibition is half-maximal) came out at 123 µM.
Taken in the same sequence, the figures for `Cc1ccc(SSc2ccc(C(C)(C)C)cc2)cc1` were above 200 µM and 4.27 µM.
For the molecule `COC(=O)c1ccc2cc(O)c(O)cc2c1`, the EC50 is above 200 µM and the IC50 came out at 22.4 µM.
In the same order, the values of `COc1cnn(-c2ccccc2)c(=O)c1SCc1ccc(Cl)cc1` are above 52.5 µM and 30.9 µM.
In the same order, the values of `CC(C)CNC(=O)CCc1cccc2c1oc1c(CCN)cccc12` are above 200 µM and 14.8 µM.
In the case of `CC(C)CC(NC(=O)C(CCI)Cc1ccccc1)C(=O)Nc1ccccc1` (stereo unspecified), the EC50 was above 200 µM and the IC50 turned out to be 32.4 µM.
In the same order, the values of `N#Cc1ccc(Oc2cccc(Oc3ccccc3)c2)cc1C#N` are above 43.7 µM and above 43.7 µM.
Consider `COc1c(Cl)cc(C(=CCC[C@H]2CC[C@@]3(C)C(CC[C@@H]4C3CC[C@]3(C)C(C(C)CCCC(C)C)CCC43)C2)c2cc(Cl)c(OC)c(C(=O)O)c2)cc1C(=O)O` (stereo partly specified), for which the EC50 was 12 µM and the IC50 stood at 302 µM.
For the molecule `Cc1cccc2c(N)c3cccc(C(=O)NCC[N+](C)(C)Cc4ccc([N+](=O)[O-])s4)c3nc12`, the EC50 is above 2 µM and the IC50 was found to be 0.251 µM.
Consider `O=C(O)CNC(=O)Cn1[se]c2ccccc2c1=O`, for which the EC50 was 18.2 µM and the IC50 is 110 µM.
As for `O=C(O)CN(CCN(CC(=O)O)CC(=O)O)CC(=O)O.[Ni+2]`, the EC50 is above 200 µM and the IC50 is above 200 µM.
For `COC1/C=C/OC2(C)Oc3c(C)c(O)c4c(O)c(c(/C=N/N(C)c5ncnc6c5ncn6C5OC(CO)C(O)C5O)c(O)c4c3C2=O)NC(=O)C(C)=C/C=C/C(C)C(O)C(C)C(O)C(C)C(OC(C)=O)C1C` (stereo unspecified), the EC50 is above 200 µM and the IC50 turned out to be 110 µM.
As for `NC(=Nc1ccccc1)C(F)(F)F`, the EC50 was above 200 µM and the IC50 was above 200 µM.
Take `CC(=O)N[C@@H]1C(O)CN2C(=O)C(=O)O[C@H](C(O)CO)[C@@H]12` (stereo partly specified): the result was inactive.
On to `CCCCCCCCCCCCCCCCOCC(Cl)COP(=O)(O)OP(=O)(O)OCC1OC(n2cc(C)c(=O)[nH]c2=O)CC1O` (stereo unspecified), for which the EC50 was above 145 µM and the IC50 was 123 µM.
With `O=C(CN1C(=O)CC(c2ccccc2)(c2ccccc2)C1=O)N1CCN(CCO)CC1`, the EC50 was above 200 µM and the IC50 is 151 µM.
For `N#CC(Cc1ccccc1)C(=O)NN` (stereo unspecified), the EC50 is above 200 µM and the IC50 is above 200 µM.
As to `COC(=O)C12OC3CO[Si](C(C)C)(C(C)C)O[Si](C(C)C)(C(C)C)OC3C1Oc1nc(=O)ccn12` (stereo unspecified), the EC50 is above 200 µM and the IC50 was 35.5 µM.
Turning to `COc1ccc(SSc2ccc(OC)n[n+]2[O-])[n+]([O-])n1`, the EC50 was above 200 µM and the IC50 worked out at 1 µM.
Consider `Nc1nnc2nc(CC(=O)c3cccc([N+](=O)[O-])c3)/c(=C/C(=O)c3cccc([N+](=O)[O-])c3)n12`, for which the EC50 is above 16.2 µM and the IC50 is above 16.2 µM.
With `CCOC(=O)c1cc(NC(=O)N(CCC#N)CCN(C(=O)N[C@@H](Cc2ccccc2)C(=O)N[C@@H](CC(C)C)C(=O)NC)c2ccccc2)ccc1OC`, the EC50 was above 200 µM and the IC50 stood at 29.5 µM.
Taken in the same sequence, the figures for `O=C(OCCC[P+](c1ccccc1)(c1ccccc1)c1ccccc1)c1ccccc1` were above 200 µM and 3.39 µM.
Take `O=NNc1nc(-c2ccccn2)nc2ccccc12`: the EC50 was above 200 µM and the IC50 is 7.94 µM.
As for `NC(C(=O)O)C1=CCCC1` (stereo unspecified), the EC50 is above 200 µM and the IC50 is above 200 µM.
Turning to `O=C1CCCC(=O)NNC(=O)Nc2ccc(cc2)Cc2ccc(cc2)NC(=O)NN1`, the EC50 is above 30.9 µM and the IC50 was above 30.9 µM.
On to `COc1ccc(/C=C2/SC(=S)NC2=O)c(OC)c1OC`, for which the EC50 is above 200 µM and the IC50 was 7.76 µM.
`CN1N=Nc2ccccc2C1(O)c1ccc(F)cc1` (stereo unspecified): the EC50 was above 200 µM and the IC50 was above 200 µM.
Regarding `Cc1ccc(S(=O)(=O)C(CC(NC=O)S(=O)(=O)c2ccc(C)cc2)NC=O)cc1` (stereo unspecified), the outcome was inactive.
For the molecule `Oc1ccc2ccc3c(c2c1)CN(Cc1ccccc1)CO3`, the EC50 was above 24.5 µM and the IC50 was above 24.5 µM.
Take `N/C(=N\NS(=O)(=O)c1ccccc1)C(F)(F)F`: the EC50 was above 200 µM and the IC50 is 107 µM.
For the molecule `COc1cc2c(oc(=O)c3c4oc([Si](C)(C)C)cc4cc(OC)c23)c2cccc(OCc3ccccc3)c12`, the EC50 was above 0.501 µM and the IC50 is above 0.501 µM.
Consider `CC(=O)O[C@H]1CCC2[C@@H]3CCC4Nc5[nH]ncc5C[C@]4(C)C3CC[C@@]21C` (stereo partly specified), for which the outcome was inactive.
Consider `O=C(N[C@@H](c1ccccc1)[C@@H](O)C(=O)OCc1ccc([N+](=O)[O-])cc1)c1ccccc1`, for which the EC50 is above 200 µM and the IC50 worked out at 151 µM.
For the molecule `COCCC(NC(=O)C(CC(C)C)NC(=O)OC(C)(C)C)C(N)=O` (stereo not drawn) (Boc-Leu-[hSer](Me)-NH2; configuration not given here), the EC50 is above 200 µM and the IC50 was above 200 µM.
Turning to `COC(=O)/C=C(/C(=O)OC)c1c(C)c(C)c2c(C)cc(C)cc(C)c1-2`, the EC50 was above 200 µM and the IC50 came to 10 µM.
Turning to `C=C1CC(COc2ccc3c(C)c(Cl)c(=O)oc3c2)(c2ccccc2)OC1=O` (stereo unspecified), the EC50 is above 200 µM and the IC50 was determined as 0.363 µM.
For the molecule `Cc1nnc(N)s/c1=N/O`, the EC50 is above 200 µM and the IC50 is above 200 µM.
In the case of `Cc1sccc1C(=S)Nc1ccc(Cl)c(/C=N/OC(C)(C)C)c1`, the EC50 is 14.1 µM and the IC50 was determined as 14.8 µM.
Turning to `O=[N+]([O-])C(=C(Nc1ccccc1)Nc1ccccc1)/C(Cl)=C(\Cl)Br`, the EC50 is above 200 µM and the IC50 is 7.41 µM.
Turning to `CCCCCC=C(c1ccc(OC)c(C(=O)OC)c1)c1ccc(OC)c(C(=O)OC)c1`, the EC50 is above 200 µM and the IC50 is 27.5 µM.
For the molecule `Nc1ncnc2c1ncn2C1OC(CO)CC1O` (stereo unspecified), the result was inactive.
For the molecule `Brc1ccc(-c2cc3c(cc2C2SCCS2)OCO3)cc1`, the EC50 was above 67.6 µM and the IC50 was above 67.6 µM.
In the case of `CN[C@@H](C)[C@H](NC)c1ccccc1`, the result was inactive.
For the molecule `COc1cc(OC)c2c(C)cc(=O)oc2c1`, the EC50 is above 200 µM and the IC50 is above 200 µM.
Regarding `Cc1cccc2c1CC(C1OC(=O)c3ccccc31)C2=O` (stereo unspecified), the EC50 was above 100 µM and the IC50 is above 100 µM.
Take `CN1C2c3ccccc3C3C4c5ccccc5C(C31)C(C2[N+](=O)[O-])N4C` (stereo unspecified): the EC50 is above 43.7 µM and the IC50 was 27.5 µM.
With `Cc1ccsc1/C=N/Nc1nncc2ccccc12`, the EC50 was above 200 µM and the IC50 worked out at 25.1 µM.
In the same order, the values of `CC(CN(C)C)Nc1c2ccccc2nc2cccc([N+](=O)[O-])c12` (stereo unspecified) are above 2 µM and 0.977 µM.
As to `Clc1cc2ncn(C3CCCCO3)c2cc1Cl` (stereo unspecified), the EC50 was above 200 µM and the IC50 was 45.7 µM.
`C=CCSc1nn(CC=C)cc2ncnc1-2`: the EC50 is above 200 µM and the IC50 is above 200 µM.
As for `Oc1ccc(C2SCc3nc4ccccc4n32)cc1` (stereo unspecified), the EC50 is above 26.9 µM and the IC50 was above 26.9 µM.
Take `Cc1cn(COCC(O)C[N+](=O)[O-])c(=O)[nH]c1=O` (stereo unspecified): the EC50 was above 200 µM and the IC50 was above 200 µM.
Consider `CCOC(C[Se]CC(OCC)OCC)OCC`, for which the EC50 was 37.2 µM and the IC50 is 112 µM.
Taken in the same sequence, the figures for `CCOP(=O)(OCC)/C(C#N)=C/c1ccc(F)cc1` were above 891 µM and above 891 µM.
In the same order, the values of `CCCCCCCCNC(=O)/C(=C\c1ccc2c(c1)OCO2)NC(=O)c1ccccc1` are above 58.9 µM and 45.7 µM.
Regarding `Cc1ccc(C(=O)/C=C/c2ccccc2O)c(C)c1`, the EC50 was 91.2 µM and the IC50 was 102 µM.
On to `COC(=O)c1ccc(C)cc1CC1Cc2cc(C)ccc2C1=O` (stereo unspecified), for which the EC50 was above 200 µM and the IC50 is above 200 µM.
As for `[N-]=[N+]=Nc1ccc(S(=O)(=O)Oc2cc(OS(=O)(=O)c3ccc(N=[N+]=[N-])cc3)cc(OS(=O)(=O)c3ccc(N=[N+]=[N-])cc3)c2)cc1`, the EC50 was above 4.07 µM and the IC50 is above 4.07 µM.
Regarding `COC(=O)c1cc(C(=CCC[C@H]2CC[C@@]3(C)C(CCC4C3CC[C@@]3(C)C4CC[C@@H]3C(C)CCCC(C)C)C2)c2cc(Cl)c(OC(=O)c3ccccc3)c(C(=O)OC)c2)cc(Cl)c1OC(=O)c1ccccc1` (stereo partly specified), the EC50 is above 200 µM and the IC50 was above 200 µM.
For `CC(=O)NC(Cc1ccccc1)C(=S)N1CCCC1` (stereo unspecified), the EC50 was above 912 µM and the IC50 is 776 µM.
In the case of `Nc1c2nc(Nc3ccccc3)sc2nc(=S)n1-c1ccc([N+](=O)[O-])cc1`, the EC50 is above 50.1 µM and the IC50 is above 50.1 µM.
Regarding `CCOC(=O)c1c(NC(=O)c2ccccc2)sc2c1CCCC2`, the EC50 is above 151 µM and the IC50 was above 151 µM.
For the molecule `CC1(C)CC(=O)C2C(C1)Nc1ccccc1NC2c1cccc([N+](=O)[O-])c1` (stereo unspecified), the EC50 is above 200 µM and the half-maximal inhibitory concentration (IC50) stood at 93.3 µM.
As to `CNS(=O)(=O)NNS(=O)(=O)c1cccc([N+](=O)[O-])c1`, the EC50 is above 83.2 µM and the IC50 is above 83.2 µM.
Regarding `CC1OC(OCC2OC(Oc3c(-c4ccc(O)cc4)oc4cc(O)cc(O)c4c3=O)C(OC3OCC(O)(CO)C3O)C(O)C2O)C(O)C(O)C1O` (stereo unspecified), the EC50 is above 347 µM and the IC50 is above 347 µM.
`O=c1oc2ccccc2c(O)c1/C=N\c1nc(-c2ccccc2)cs1`: the EC50 is above 200 µM and the half-inhibitory concentration (IC50) amounted to 3.39 µM.
Take `Oc1ccccc1C(Nc1nc2ccccc2s1)c1ccc2cccnc2c1O` (stereo unspecified): the EC50 was above 33.9 µM and the IC50 was 2.57 µM.
Consider `Nc1ncnc2c1ncn2C1OC(CO)C(O)C(O)C1O` (stereo unspecified), for which the EC50 was above 200 µM and the IC50 was above 200 µM.
